Holding throughout (assay): minimum inhibition concentration (MIC) for tetracycline
Holding throughout (assay type): cell-based
Settings in all cases: tetracycline resistant isolate from aquaculture environment

One experiment concerns Enterococcus sp. 17fT4. The protocol:
(§1) Study 1. The variability of antibiotic resistant (ART) bacteria in responding to drug treatment was evaluated using tetracycline resistant isolates in brain heart infusion (BHI) broth. […] All strains were isolated from aquaculture environment. The bacteria in different titer were grown in BHI with different concentration of tetracycline conjugated to antibody against Enterococcus.

The next experiment deals with Enterococcus sp. 18fT3. The protocol:
as §1

Experiment [1] relates to Plesiomonas shigelloides 17iT21. The protocol: as §1

Among the data in patent publication US20130183323A1, “TARGETED ANTIBIOTIC AND ANTIMICROBIAL TREATMENTS FOR PERSONALIZED ADMINISTRATION” (priority 2011, published 2013) are MIC values, retold here.

As usually defined, the MIC is the smallest concentration in the dilution series that meets the test's criterion for growth inhibition.

≈ marks a conversion by molar mass, not a printed value.

With `CN(C)[C@@H]1C(O)=C(C(N)=O)C(=O)[C@@]2(O)C(O)=C3C(=O)c4c(O)cccc4[C@@](C)(O)[C@H]3C[C@@H]12` [tetracycline], the results for the MIC (with Enterococcus sp. 17fT4; against Enterococcus sp. 18fT3; in experiment [1]) were 128 µg/mL (≈ 288 µM), 512 µg/mL (≈ 1150 µM) and 64 µg/mL (≈ 144 µM), respectively.
